Reference: patent US20200138840A1, “PHARMACEUTICAL COMPOSITION AND TUMOR IMMUNOACTIVITY PROMOTER” (SENTAN Pharma inc., priority 2017, published 2020)

Columns and labels:
Hepatoma cell line Huh-7 = assay: Anticancer effect of 2DG in nude mice subcutaneously transplanted with hepatoma cell line (Example 1); type: in vivo, nude mice (BALBc-nu/nu); details: for tumor volume over time (FIG. 2): combination with sorafenib 5 mg/kg/day orally
Experimental: The Hepatoma cell line Huh-7 (obtained from Cell Resource Center for Biomedical Research, Cell Bank, Institute of Development, Aging and Cancer, National University Corporation Tohoku University) to be transplanted to the mice was cultured at 37° C. using a 5% CO2 incubator. Dulbecco's modified Eagle's medium (DMEM) containing 10% fetal bovine serum was used as the medium for culturing Huh-7 cells. Six-week-old nude mice (male, BALBc-nu/nu mice) were subcutaneously transplanted with 1×10^7 Huh-7 cells. In order to confirm the survival and growth of the transplanted cells, the measurement of tumor size was carried out using a pair of vernier calipers. […] (a) Control group: 200 μL of PBS was administered intraperitoneally every day. […] At the time points of 7 days, 14 days and 21 days after the start of administration, the average amount of meals taken per day was calculated from the amount of meals taken in the previous week. […] Further, 21 days after the start of administration, the tumors were observed, blood was collected from the mice in accordance with a conventional method, and the livers were removed from the mice. The serological profiles of the collected blood samples were measured using SPOTCHEM (trademark) EZ SP-4430 system (manufactured by Arkray, Inc.). In addition, the weight of the removed livers was measured.

[1] = Side effects in Example 1: body weight, meals, blood glucose, serological profiles, liver weight; type: in vivo, nude mice (BALBc-nu/nu); details: for Fasting blood glucose / Liver weight / Total cholesterol / ALT / Neutral fat: day 21
Experimental: Six-week-old nude mice (male, BALBc-nu/nu mice) were subcutaneously transplanted with 1×10^7 Huh-7 cells. In order to confirm the survival and growth of the transplanted cells, the measurement of tumor size was carried out using a pair of vernier calipers. At the time point when the tumors in the mice had reached a volume of from 100 to 150 mm^3, the mice were divided into the following six groups.
In each of the groups, the tumor volume and the body weight of the mice were measured every 3 days from the start of administration. At the time points of 7 days, 14 days and 21 days after the start of administration, the average amount of meals taken per day was calculated from the amount of meals taken in the previous week. […] Further, 21 days after the start of administration, the tumors were observed, blood was collected from the mice in accordance with a conventional method, and the livers were removed from the mice. The serological profiles of the collected blood samples were measured using SPOTCHEM (trademark) EZ SP-4430 system (manufactured by Arkray, Inc.). In addition, the weight of the removed livers was measured.

[2] = Side effects in Example 3: body weight, meals, blood glucose, serological profiles, liver weight; type: in vivo, nude mice; details: day 21
Experimental: Nude mice subcutaneously transplanted with Huh-7 cells, prepared in the same manner as in Example 1, were divided in the following six groups.
In each of the groups, the tumor volume and the body weight of the mice were measured in the same manner as in Example 1, and the average amount of meals taken per day was calculated.

CD3 positive T cells = assay: Immunostaining of liver tumor tissue with CD3 antibody (Example 10); type: in vivo, STAM mice (C57BL6/N); details: 2DG 100 mg/kg/day i.p. every day; high dose 2DG-PLGA 200 μL of 100 mg/mL once a week
Experimental: Further, the immunostaining of the liver tumor tissue was carried out using a rabbit monoclonal CD3 antibody (manufactured by GeneTex, Inc.).

[3] = cited from earlier work
[4] = high dose 2DG 1,000 mg/kg/day i.p. (alone or with sorafenib 5 mg/kg/day orally)
[5] = low dose 2DG 100 mg/kg/day i.p. (alone or with sorafenib 5 mg/kg/day orally)
[6] = high dose 2DG 1,000 mg/kg/day i.p., day 14 after start
[7] = 2DG 100 mg/kg/day into jugular vein once a week
[8] = 2DG 100 mg/kg/day intraperitoneally every day

## O=CC[C@@H](O)[C@H](O)[C@H](O)CO [2DG, 2-Deoxy-D-glucose]
Hepatoma cell line Huh-7; 21 days after start, 2DG i.p. every day, sorafenib 5 mg/kg/day orally
  size of the tumors (appearance, FIG. 1): decreased the size of the tumors
Hepatoma cell line Huh-7; high dose 2DG 1,000 mg/kg/day i.p. every day
  tumor volume over time (FIG. 2): significant decrease in the tumor volume in a dose-dependent manner
Hepatoma cell line Huh-7; low dose 2DG 100 mg/kg/day i.p. every day
  tumor volume over time (FIG. 2): significant decrease in the tumor volume in a dose-dependent manner
[1]; [4]
  Fasting blood glucose: 77.2 ± 28.0 mg/dL
  Liver weight: 1.10 ± 0.1 g
  Total cholesterol: 110.8 ± 23.6 mg/dL
[1]; [5]
  ALT: 34.8 ± 16.2 mg/dL
  Fasting blood glucose: 79.0 ± 10.9 mg/dL
  Liver weight: 1.21 ± 0.1 g
  Neutral fat: 103.2 ± 24.7 mg/dL
  Total cholesterol: 122.6 ± 19.8 mg/dL
[1]; [6]
  blood glucose level after administration (FIG. 5): marked increase in the blood glucose level
  consciousness after administration: disturbance of consciousness was observed
[2]; [7]
  ALT: 49 ± 20.9 U/L
  Fasting blood glucose: 73.8 ± 14.0 mg/dL
  Liver weight: 1.10 ± 0.19 g
  Neutral fat: 67.6 ± 28.5 mg/dL
  Total cholesterol: 115.4 ± 10.1 mg/dL
[2]; [8]
  ALT: 38.6 ± 23.5 U/L
  Fasting blood glucose: 83.2 ± 38.2 mg/dL
  Liver weight: 1.35 ± 0.19 g
  Total cholesterol: 113.8 ± 25.3 mg/dL
CD3 positive T cells
  infiltration of T cells into the interior of tumors (FIG. 29): increased infiltration of T cells
[3]; dose of from 63 to 88 mg/kg
  side-effects: severe side-effects such as gastrointestinal bleeding, long QT syndrome and hyperglycemia were observed
[3]; phase 1 clinical trial, oral administration, combined with docetaxel
  tolerated dose: ≤ 63 mg/kg

## CNC(=O)c1cc(Oc2ccc(NC(=O)Nc3ccc(Cl)c(C(F)(F)F)c3)cc2)ccn1 [Sorafenib, sorafenib]
[1]; sorafenib 5 mg/kg/day orally
  ALT: 35.0 ± 10.3 mg/dL
  Fasting blood glucose: 84.8 ± 11.8 mg/dL
  Neutral fat: 95.2 ± 35.7 mg/dL
  Total cholesterol: 120.4 ± 17.8 mg/dL
